In patent US6936585B2, “Corticotropin releasing factor 2 receptor agonists” (priority 2002, dated 2005) one finds Emax and EC50 data, which are given here for 36 compounds.

One experiment concerns the target T1, CRF1R (Homo sapiens, UniProt P34998).
T1 sequence (P34998 24-415): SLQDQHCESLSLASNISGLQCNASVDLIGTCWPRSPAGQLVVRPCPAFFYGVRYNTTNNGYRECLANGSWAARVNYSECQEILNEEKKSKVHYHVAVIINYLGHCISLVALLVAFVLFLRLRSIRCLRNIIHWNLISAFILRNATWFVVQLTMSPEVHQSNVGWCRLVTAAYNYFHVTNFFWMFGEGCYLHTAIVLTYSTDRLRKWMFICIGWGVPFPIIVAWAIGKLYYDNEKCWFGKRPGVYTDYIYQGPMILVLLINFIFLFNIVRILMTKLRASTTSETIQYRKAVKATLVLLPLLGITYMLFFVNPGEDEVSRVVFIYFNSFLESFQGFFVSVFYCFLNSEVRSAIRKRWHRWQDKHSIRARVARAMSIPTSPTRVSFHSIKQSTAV
As to the kind of experiment: CRF1R agonist activation (EC50 / Emax), called comparative CRF binding. It is filed as cell-based. The method in brief:
(§1)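 Read-out is Gαs-driven cAMP induction, quantified directly in lysates or through CRE-reporter gene expression, after treating CRF1R- or CRF2R-expressing cells with peptide. Vehicle-treated cells serve as the comparison.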

The target of the next experiment is T2, CRF2R (Homo sapiens, UniProt Q13324).
T2 sequence (Q13324 1-411): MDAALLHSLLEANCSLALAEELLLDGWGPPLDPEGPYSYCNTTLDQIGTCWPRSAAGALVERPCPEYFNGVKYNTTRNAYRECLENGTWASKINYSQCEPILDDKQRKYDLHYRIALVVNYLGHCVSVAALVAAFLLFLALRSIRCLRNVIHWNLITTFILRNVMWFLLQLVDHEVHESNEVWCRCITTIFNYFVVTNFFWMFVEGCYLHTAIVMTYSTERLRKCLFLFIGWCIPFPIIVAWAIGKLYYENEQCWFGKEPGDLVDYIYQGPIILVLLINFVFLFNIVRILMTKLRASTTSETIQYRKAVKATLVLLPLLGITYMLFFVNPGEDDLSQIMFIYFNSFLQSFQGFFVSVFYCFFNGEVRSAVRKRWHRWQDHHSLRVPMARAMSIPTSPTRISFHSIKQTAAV
As to the kind of experiment: CRF2R agonist activation (EC50 / Emax), called comparative CRF binding. Type of experiment: cell-based. The method in brief: as §1

Where two headings read alike, the source gives them in different places. Ends that are not written are not given here. Peptide text beside a SMILES is read from it. A value given as a limit tells only on which side of the number the result lay.

`CC[C@H](C)[C@H](NC(=O)[C@H](CCC(N)=O)NC(=O)[C@H](C)NC(=O)[C@H](CCSC)NC(=O)[C@H](CC(C)C)NC(=O)[C@H](Cc1c[nH]cn1)NC(=O)[C@H](C)NC(=O)[C@H](CC(N)=O)NC(=O)[C@H](C)NC(=O)[C@H](C)NC(=O)[C@H](C)NC(=O)[C@H](CCC(N)=O)NC(=O)[C@H](C)NC(=O)[C@H](CCCNC(=N)N)NC(=O)[C@H](CC(C)C)NC(=O)[C@H](CC(N)=O)NC(=O)[C@H](CCCCN)NC(=O)[C@H](C)NC(=O)[C@H](CCCCN)NC(=O)[C@H](C)NC(=O)[C@@H](NC(=O)[C@H](CC(N)=O)NC(=O)[C@H](Cc1ccccc1)NC(=O)[C@H](CC(C)C)NC(=O)[C@H](CC(C)C)NC(=O)[C@H](CC(N)=O)NC(=O)[C@H](CCSC)NC(=O)[C@@H](NC(=O)[C@H](CC(N)=O)NC(=O)[C@@H](NC(=O)[C@@H]1CCCN1C(=O)[C@@H](NC(=O)[C@H](CC(=O)O)NC(=O)[C@H](CC(C)C)NC(=O)[C@H](CO)NC(=O)[C@H](CC(C)C)NC(=O)[C@@H](NC(=O)[C@H](Cc1ccccc1)NC(=O)[C@H](CCCCN)NC(=O)[C@@H](N)[C@@H](C)O)[C@@H](C)O)C(C)C)[C@@H](C)O)[C@@H](C)CC)[C@@H](C)CC)C(N)=O` [hUroIII, human urocortin III, reference compound] (H-TKFTLSLDVPTNIMNLLFNIAKAKNLRAQAAANAHLMAQI-NH2): the Emax came out at 10.2% on CRF1R (Emax, read-out: CRF1R (Emax %)) and 60% at CRF2R (Emax, read-out: CRF2R (Emax %)).
For `CC[C@H](C)[C@H](NC(=O)[C@H](CC(=O)O)NC(=O)[C@H](CC(C)C)NC(=O)[C@H](CC(C)C)NC(=O)[C@H](CCCCN)NC(=O)[C@H](CCCNC(=N)N)NC(=O)[C@H](CC(N)=O)NC(=O)[C@H](CO)NC(=O)[C@H](Cc1c[nH]cn1)NC(=O)[C@H](C)NC(=O)[C@H](CCC(N)=O)NC(=O)[C@H](CCC(N)=O)NC(=O)[C@H](C)NC(=O)[C@H](CC(C)C)NC(=O)[C@H](CCC(N)=O)NC(=O)[C@H](CC(=O)O)NC(=O)[C@H](C)NC(=O)[C@H](CCCCN)NC(=O)[C@@H](NC(=O)[C@H](CCSC)NC(=O)[C@H](CCC(=O)O)NC(=O)[C@H](CC(C)C)NC(=O)[C@@H](NC(=O)[C@H](CCC(=O)O)NC(=O)[C@H](CCCNC(=N)N)NC(=O)[C@H](CC(C)C)NC(=O)[C@H](CC(C)C)NC(=O)[C@H](Cc1c[nH]cn1)NC(=O)[C@H](Cc1ccccc1)NC(=O)[C@@H](NC(=O)[C@H](CC(C)C)NC(=O)[C@H](CC(=O)O)NC(=O)[C@H](CC(C)C)NC(=O)[C@H](CO)NC(=O)[C@@H](NC(=O)[C@@H]1CCCN1C(=O)[C@@H]1CCCN1C(=O)[C@H](CCC(=O)O)NC(=O)[C@H](CCC(N)=O)NC(=O)[C@@H](N)CO)[C@@H](C)CC)[C@@H](C)O)C(C)C)[C@@H](C)O)C(=O)N[C@@H](C)C(N)=O` [oCRF, sheep corticotropin releasing factor, reference compound], the EC50 at CRF1R is 0.0274 µM; at CRF2R, above 0.1 µM. Moreover, the Emax at CRF1R (Emax, read-out: CRF1R (Emax %)) was 98%; on CRF2R (Emax, read-out: CRF2R (Emax %)), 33%.
Turning to “HHHHHHIVLSLDVPIGLLQILLEQARARAAREQATTNARILARN-NH2 [compound 296]”, the maximal response (Emax) was 4% on CRF1R (read-out: CRF1R Emax) and 65% on CRF2R (read-out: CRF2R Emax).
The like results for “NDDPPISIDLPFFLLRNMIEMARIENEREQAGLNAKYLAEV-NH2 [compound 264]” were, in that order, 100% and 66.3%.
Regarding “NDDPPISIDLPFHLLRNMIEMARIENEREQAGLNAKYLAEV-NH2 [compound 262]”, the Emax at CRF1R (read-out: CRF1R Emax) was 100%; on CRF2R (read-out: CRF2R Emax), 92.2%.
Turning to “NDDPPISIDLPFLLLRNMIEMARIENEREQAGLNAKYLAEV-NH2 [compound 260]”, the half-maximal effective concentration (EC50) at CRF1R (read-out: CRF1R EC50) was 0.834 µM; on CRF2R (read-out: CRF2R EC50) it was at least 0.1 µM. For the same compound, the values for the maximum response (Emax) at CRF1R (read-out: CRF1R Emax) and at CRF2R (read-out: CRF2R Emax) were 89.7% and 89.3%, respectively.
For the compound “NDDPPISIDLPFQLLRNMIEMARIENEREQAGLNAKYLAEV-NH2 [compound 258]”, the results for the Emax at CRF1R (read-out: CRF1R Emax) and on CRF2R (read-out: CRF2R Emax) were 23.6% and 49.3%, respectively.
“NDDPPISIDLPFYLLRNMIEMARIENEREQAGLNAKYLAEV-NH2 [compound 261]”: the Emax at CRF1R (read-out: CRF1R Emax) was 100%; on CRF2R (read-out: CRF2R Emax) it was 95.3%.
The like results for “NDDPPISIDLPLFLLRNMIEMARIENEREQAGLNAKYLAEV-NH2 [compound 257]” were, in that order, 83.5% and 72.6%.
The like results for “NDDPPISIDLPLHLLRNMIEMARIENEREQAGLNAKYLAEV-NH2 [compound 259]” were, in that order, 83.6% and 65%.
The like results for “NDDPPISIDLPLILLRNMIEMARIENEREQAGLNAKYLAEV-NH2 [compound 269]” were, in that order, 44.3% and 77.3%.
As to “NDDPPISIDLPLLLLRNMIEMARIENEREQAGLNAKYLAEV-NH2 [compound 268]”, the Emax at CRF1R (read-out: CRF1R Emax) came to 14.2%; at CRF2R (read-out: CRF2R Emax) it was 59%.
On to “NDDPPISIDLPLQLLRNMIEMARIENEREQAGLNAKYLAEV-NH2 [compound 270]”, for which the maximum response (Emax) on CRF1R (read-out: CRF1R Emax) is 7.85%; at CRF2R (read-out: CRF2R Emax), 19.3%.
“NDDPPISIDLPLYLLRNMIEMARIENEREQAGLNAKYLAEV-NH2 [compound 271]”: the EC50 on CRF1R (read-out: CRF1R EC50) stood at 0.815 µM; at CRF2R (read-out: CRF2R EC50) it was 0.0481 µM. In addition, the Emax was 80.7% at CRF1R (read-out: CRF1R Emax) and 69% at CRF2R (read-out: CRF2R Emax).
As for “NDDPPISIDLPQYLLRNMIEMARIENEREQAGLNAKYLAEV-NH2 [compound 265]”, the Emax at CRF1R (read-out: CRF1R Emax) was 9.3%; at CRF2R (read-out: CRF2R Emax) it was 23.4%.
The like results for “NDDPPISIDLPTYLLRNMIEMARIENEREQAGLNAKYLAEV-NH2 [compound 266]” were, in that order, 4.45% and 19.4%.
In the case of “NDDPPISIDLPYYLLRNMIEMARIENEREQAGLNAKYLAEV-NH2 [compound 267]”, the Emax amounted to 22.8% on CRF1R (read-out: CRF1R Emax) and 44.2% on CRF2R (read-out: CRF2R Emax).
On the same counts, the results for “SEEPPISLDLTFHLLREVLEMARAEQLAQQAHTNARILARV-NH2 [compound 161]” are 77% and 88%.
On to “SEEPPISLDVPIGLLQEVLEMARAEQLAQQAHSNRKLMEII-NH2 [compound 162]”, for which the Emax on CRF1R (read-out: CRF1R Emax) is 11%; at CRF2R (read-out: CRF2R Emax), 7%.
“SQEIVLSLDVPIGLLREVLEMTKADQLAQQAHSNRKLLDIA-NH2 [compound 7]”: the EC50 on CRF1R (read-out: CRF1R EC50) and at CRF2R (read-out: CRF2R EC50) was at least 0.1 µM each time.
Regarding “SQEIVLSLDVPIGLLREVLEMTKADQLAQQAHSNRKLLDIA-NH2 [compound 152]”, the figures for the Emax on CRF1R (read-out: CRF1R Emax) and on CRF2R (read-out: CRF2R Emax) were 4% and 19%, respectively.
“SQEPPISLDLPFELLREVLEMTKADQLAQQAHSNRKLLDIA-NH2 [compound 97]”: the maximal effect (Emax) was 4.25% on CRF1R (read-out: CRF1R Emax) and 7.6% at CRF2R (read-out: CRF2R Emax).
On the same counts, the results for “SQEPPISLDLPFGLLREVLEMTKADQLAQQAHSNRKLLDIA-NH2 [compound 103]” are 5.75% and 4.85%.
Consider “SQEPPISLDLPFQLLREVLEMTKADQLAQQAHSNRKLLDIA-NH2 [compound 91]”, for which the Emax on CRF1R (read-out: CRF1R Emax) stood at 4%; on CRF2R (read-out: CRF2R Emax), 7.1%.
The like results for “SQEPPISLDLPFYLLREVLEMTKADQLAQQAHSNRKLLDIA-NH2 [compound 96]” were, in that order, 16.3% and 12.5%.
As to “SQEPPISLDLPIGLLREVLEMTKADQLAQQAHSNRKLLDIA-NH2 [compound 93]”, the maximum response (Emax) stood at 5% on CRF1R (read-out: CRF1R Emax) and 6.4% at CRF2R (read-out: CRF2R Emax).
The like results for “SQEPPISLDLPIHLLREVLEMTKADQLAQQAHSNRKLLDIA-NH2 [compound 94]” were, in that order, 7.3% and 6.15%.
Take “SQEPPISLDLPIQLLREVLEMTKADQLAQQAHSNRKLLDIA-NH2 [compound 100]”: the maximal effect (Emax) at CRF1R (read-out: CRF1R Emax) worked out at 6.25%; at CRF2R (read-out: CRF2R Emax), 9.85%.
On the same counts, the results for “SQEPPISLDLPLGLLREVLEMTKADQLAQQAHSNRKLLDIA-NH2 [compound 90]” are 4% and 12.2%.
On the same counts, the results for “SQEPPISLDLPLHLLREVLEMTKADQLAQQAHSNRKLLDIA-NH2 [compound 102]” are 7.8% and 13.5%.
For “SQEPPISLDLPLQLLREVLEMTKADQLAQQAHSNRKLLDIA-NH2 [compound 95]”, the results for the maximal effect (Emax) at CRF1R (read-out: CRF1R Emax) and on CRF2R (read-out: CRF2R Emax) were 5.55% and 8.25%, respectively.
The like results for “SQEPPISLDLPLYLLREVLEMTKADQLAQQAHSNRKLLDIA-NH2 [compound 101]” were, in that order, 7.35% and 6.95%.
On the same counts, the results for “SQEPPISLDLPTELLREVLEMTKADQLAQQAHSNRKIIDIA-NH2 [compound 92]” are 4.6% and 15.8%.
As to “SQEPPISLDLPTGLLREVLEMTKADQLAQQAHSNRKLLDIA-NH2 [compound 98]”, the Emax at CRF1R (read-out: CRF1R Emax) turned out to be 4%; on CRF2R (read-out: CRF2R Emax) it was 5.5%.
On the same counts, the results for “SQEPPISLDLPTHLLREVLEMTKADQLAQQAHSNRKLLDIA-NH2 [compound 99]” are 4.35% and 4.35%.
For “SQEPPISLDLPTQLLREVLEMTKADQLAQQAHSNRKLLDIA-NH2 [compound 105]”, the Emax turned out to be 5.2% on CRF1R (read-out: CRF1R Emax) and 9.15% at CRF2R (read-out: CRF2R Emax).
